Measured values published in US7737127B2, “2-propynyl adenosine analogs having A2A agonist activity and compositions thereof” (University of Virginia Patent Foundation, priority 2001, dated 2010).
Like-named read-outs stand apart in the source and are kept apart here.

What was measured:
human neutrophils = experiment: Human neutrophil oxidative activity, luminol-enhanced chemiluminescence; format: cell-based; conditions: for PMN oxid + roli (-log EC50): human neutrophil experiment w/Rolipram; for PMN oxid (-log EC50) / EC50: human neutrophil experiment w/o Rolipram; for EC50: Homo sapiens, Neutrophil, read-out: PMN oxid (-log EC50) (converted)
Procedure, shortened: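 Purified human neutrophils (5–10×10^5/ml) pre-incubated 30 min at 37 °C with the A2A agonist, ± rolipram and ± TNF-α (1 U/ml), then stimulated with fMLP (1 μM final). Peak luminol-enhanced chemiluminescence expressed as percent of no-agonist control. EC50 from three donors.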

human A1 AR = biological target: T1, human A1 AR (Homo sapiens, UniProt P30542); experiment: Radioligand competition binding (125I-ABA) to human A1 AR in CHO K1 cell membranes; conditions: for Ki: Ki from competition binding, 125I-ABA, CHO K1 cell membranes; for A1/A2A: selectivity ratio A1 over A2A
T1 sequence (P30542 1-326): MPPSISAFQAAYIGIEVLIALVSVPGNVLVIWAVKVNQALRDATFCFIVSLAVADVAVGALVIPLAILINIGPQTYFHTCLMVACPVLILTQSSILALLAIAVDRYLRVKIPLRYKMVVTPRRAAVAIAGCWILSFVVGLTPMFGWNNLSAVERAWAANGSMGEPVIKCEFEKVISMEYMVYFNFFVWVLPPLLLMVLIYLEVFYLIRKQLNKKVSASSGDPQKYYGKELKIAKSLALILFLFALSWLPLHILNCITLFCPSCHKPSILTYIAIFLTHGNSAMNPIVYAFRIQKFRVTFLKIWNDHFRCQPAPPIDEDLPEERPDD
Method: Sf9 cells were cultured in Grace's medium supplemented with 10% fetal bovine serum, 2.5 μg/ml amphotericin B and 50 μg/ml gentamycin in an atmosphere of 50% N2/50% O2. […] Infected cells were harvested 3 days post-infection and washed twice in insect PBS (PBS pH 6.3). Cells were then resuspended in lysis buffer (20 mM HEPES pH 7.5, 150 mM NaCl, 3 mM MgCl2, 1 mM β-mercaptoethanol (BME), 5 μg/mL leupeptin, 5 μg/mL pepstatin A, 1 μg/mL aprotinin, and 0.1 mM PMSF) and snap frozen for storage at −80° C. Cells were thawed on ice, brought to 30 mL total volume in lysis buffer, and burst by N2 cavitation (600 psi for 20 minutes). A low-speed centrifugation was performed to remove any unlysed cells (1000×g for 10 minutes), followed by a high-speed centrifugation (17,000×g for 30 minutes). The pellet from the final centrifugation was homogenized in buffer containing 20 mM HEPES pH 8, 100 mM NaCl, 1% glycerol, 2 μg/mL leupeptin, 2 μg/mL pepstatin A, 2 μg/mL Aprotinin, 0.1 mM PMSF, and 10 μM GDP using a small glass homogenizer followed by passage through a 26 gauge needle. Membranes were aliquoted, snap frozen in liquid N2, and stored at −80° C.
Binding experiments were performed in triplicate with 5 μg (A2A) or 25 μg (A1 and A3) membrane protein in a total volume of 0.1 mL HE buffer (20 mM HEPES and 1 mM EDTA) with 1 U/mL adenosine deaminase and 5 mM MgCl2 with or without 50 μM GTPγS. Membranes were incubated with radioligands at room temperature for three hours (for agonists) or two hours (for antagonists) in Millipore Multiscreene® 96-well GF/C filter plates and assays were terminated by rapid filtration on a cell harvester (Brandel, Gaithersburg, Md.) followed by 4×150 μl washes over 30 seconds with ice cold 10 mM Tris-HCl, pH 7.4, 10 mM MgCl2.

A3 AR = biological target: T2, A3 AR (Homo sapiens, UniProt P0DMS8); experiment: Radioligand competition binding (125I-ABA) to human A3 AR in HEK 293 cell membranes; conditions: for Ki: Ki from competition binding, 125I-ABA, HEK 293 cell membranes; for A3/A2A: selectivity ratio A3 over A2A
T2 sequence (P0DMS8 1-318): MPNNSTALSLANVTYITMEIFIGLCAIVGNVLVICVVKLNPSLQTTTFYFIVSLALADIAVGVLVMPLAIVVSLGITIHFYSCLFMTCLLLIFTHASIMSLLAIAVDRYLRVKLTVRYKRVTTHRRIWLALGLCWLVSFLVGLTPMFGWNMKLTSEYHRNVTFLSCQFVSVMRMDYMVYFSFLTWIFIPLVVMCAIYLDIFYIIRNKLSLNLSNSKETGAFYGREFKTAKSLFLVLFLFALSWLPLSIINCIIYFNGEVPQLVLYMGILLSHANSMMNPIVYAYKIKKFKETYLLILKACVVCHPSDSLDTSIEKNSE

[1] = biological target: recombinant human A2A receptors (Homo sapiens, UniProt P29274); experiment: Radioligand competition binding to recombinant human A2A receptors in Sf9 cell membranes; conditions: Ki from competition binding, Sf9 cell membranes
Chain of recombinant human A2A receptors (P29274 whole entry): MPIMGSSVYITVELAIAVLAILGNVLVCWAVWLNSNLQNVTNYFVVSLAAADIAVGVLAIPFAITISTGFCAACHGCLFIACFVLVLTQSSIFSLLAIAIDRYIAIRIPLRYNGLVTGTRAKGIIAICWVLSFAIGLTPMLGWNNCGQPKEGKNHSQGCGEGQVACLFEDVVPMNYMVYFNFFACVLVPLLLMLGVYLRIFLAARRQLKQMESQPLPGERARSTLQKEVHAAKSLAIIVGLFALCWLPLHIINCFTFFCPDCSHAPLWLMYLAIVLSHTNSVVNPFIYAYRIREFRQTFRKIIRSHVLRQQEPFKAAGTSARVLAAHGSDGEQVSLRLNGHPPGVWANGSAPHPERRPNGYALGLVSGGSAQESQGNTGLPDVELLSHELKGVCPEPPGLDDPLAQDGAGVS

Compound | PMN oxid + roli (-log EC50) (human neutrophils) | PMN oxid (-log EC50) (human neutrophils) | Ki (human A1 AR; read-out: A1 ± SEM) | A1/A2A (human A1 AR) | Ki (A3 AR; read-out: A3 ± SEM) | A3/A2A (A3 AR) | Ki ([1]; read-out: A2A ± SEM) | EC50 (human neutrophils) | Ki (human A1 AR; A1 ± SEM) | Ki (A3 AR; A3 ± SEM) | Ki ([1]; A2A ± SEM)
CC(=O)OCC1CCC(CC#Cc2nc(N)c3ncn(C4OC(CO)C(O)C4O)c3n2)CC1 (centres unmarked) [JR-2147] | 8.57 | 7.13 | 17.5 ± 5.2 nM | 19.0 | 89 ± 21 nM | 96.7 | 0.9 ± 0.38 nM |  |  |  | 
CCNC(=O)[C@H]1O[C@@H](n2cnc3c(N)nc(C#CC4(O)CCC(CC)CC4)nc32)C(O)C1O (stereo in doubt) [JR-3149, 5-[6-Amino-2-(4-ethyl-1-hydroxy-cyclohexylethynyl)-purin-9-yl]-3,4-dihydroxytetrahydrofuran-2-carboxylic acid ethylamide] | 9.63 |  |  | 7.0 |  | 13.5 |  | 2.19 nM | 3.8 ± 0.4 nM | 7.3 ± 1.9 nM | 0.5 ± 0.05 nM
CCNC(=O)[C@H]1O[C@@H](n2cnc3c(N)nc(C#CCC4CCC(C(=O)O)CC4)nc32)C(O)C1O (stereo in doubt) [ATL-146a, 4-{3-[6-Amino-9-(5-ethylcarbamoyl-3,4-dihydroxytetrahydrofuran-2-yl)-9H-purin-2-yl]-prop-2-ynyl}-cyclohexanecarboxylic acid] | 7.72 |  |  | 6.4 |  | 1.0 |  | 912 nM | 189 ± 19 nM | 29 ± 10 nM | 29.6 ± 1.2 nM
CCNC(=O)[C@H]1O[C@@H](n2cnc3c(N)nc(C#CCC4CCC(C(C)O)CC4)nc32)C(O)C1O (stereo in doubt) [JR-3121, 5-(6-Amino-2-{3-[4-(1-hydroxy-ethyl)-cyclohexyl]-prop-1-ynyl}-purin-9-yl)-3,4-dihydroxytetrahydrofuran-2-carboxylic acid ethylamide] | 8.31 |  |  | 9.3 |  | 12.6 |  | 105 nM | 52.3 ± 7.6 nM | 71 ± 16 nM | 5.7 ± 0.6 nM
CCNC(=O)[C@H]1O[C@@H](n2cnc3c(N)nc(C#CC4(O)CCC(c5ccccc5)CC4)nc32)C(O)C1O (stereo in doubt) [JR-3161, 5-[6-Amino-2-(1-hydroxy-4-phenyl-cyclohexylethynyl)-purin-9-yl]-3,4-dihydroxytetrahydrofuran-2-carboxylic acid ethylamide] | 9.29 |  |  | 12.2 |  | 127.0 |  | 4.47 nM | 10.9 ± 0.5 nM | 113 ± 6 nM | 0.9 ± 0.04 nM
CCNC(=O)[C@H]1O[C@@H](n2cnc3c(N)nc(C#CC4(O)CCCC(C)(C)C4)nc32)C(O)C1O (stereo in doubt) [JR-3201B, 5-[6Amino-2-(1-hydroxy-3,3-dimethylcyclohexylethynyl)-purin-9-yl]-3,4-dihydroxytetrahydrofuran-2-carboxylic acid ethylamide] | 9.2 |  |  | 98.1 |  | 14.8 |  | 8.71 nM | 157 ± 14 nM | 23.6 ± 0.35 nM | 1.6 ± 0.28 nM
CCNC(=O)[C@H]1O[C@@H](n2cnc3c(N)nc(C#CCN4CCCCC4C(=O)OC)nc32)C(O)C1O (some centres unmarked) [JR-3253, 1-{3-[6-Amino-9-(5-ethylcarbamoyl-3,4-dihydroxytetrahydrofuran-2-yl)-9H-purin-2-yl]-prop-2-ynyl}-piperidine-2-carboxylic acid methyl ester] | 8.42 |  |  | 4.2 |  | 9.5 |  | 43.7 nM | 13.8 ± 0.5 nM | 31.3 ± 9.3 nM | 3.29 ± 0.49 nM
CCNC(=O)C1OC(n2cnc3c(N)nc(C#CC4(O)CCCCC4)nc32)C(O)C1O (centres unmarked) [JR-3089] | 9.9 | 9.14 | 7.1 ± 1.1 nM | 10.8 | 4.4 ± 11 nM | 6.7 | 0.7 ± 0.05 nM |  |  |  | 
CCNC(=O)[C@H]1O[C@@H](n2cnc3c(N)nc(C#CCC4CCC(C)(C(=O)OC)CC4)nc32)C(O)C1O (single isomer, unassigned) [JR-3067B, 4-{3-[6-Amino-9-(5-ethylcarbamoyl-3,4-dihydroxytetrahydrofuran-2-yl)-9H-purin-2-yl]-prop-2-ynyl}-1-methyl-cyclohexanecarboxylic acid methyl ester] | 8.2 | 6.83 |  | 30.3 |  | 53.0 |  |  | 121 ± 44 nM | 212 ± 95 nM | 4 ± 0.2 nM
COC(=O)C1CCC(CC#Cc2nc(N)c3ncn(C4OC(CO)C(O)C4O)c3n2)CC1 (centres unmarked) [JR-2145] | 8.57 | 7.19 | 28.3 ± 7.3 nM | 42.2 | 101 ± 22 nM | 150.7 | 0.7 ± 0.16 nM |  |  |  | 
CCNC(=O)[C@H]1O[C@@H](n2cnc3c(N)nc(C#CCC4CCN(C(=O)OCC(C)C)CC4)nc32)C(O)C1O (stereo in doubt) [JR-4011, 4-{3-[6-Amino-9-(5-ethylcarbamoyl-3,4-dihydroxytetrahydrofuran-2-yl)-9H-purin-2-yl]-prop-2-ynyl}-piperidine-1-carboxylic acid isobutyl ester] |  |  |  | 0.0 |  | 117.5 |  | 3.47 nM |  | 71.7 nM | 0.61 ± 0.06 nM
CCNC(=O)[C@H]1O[C@@H](n2cnc3c(N)nc(C#CCC4CCC(C(C)=O)CC4)nc32)C(O)C1O (stereo in doubt) [JR-3119, 5-{2-[3-(4-Acetyl-cyclohexyl)-prop-1-ynyl]-6-aminopurin-9-yl}-3,4-dihydroxytetrahydrofuran-2-carboxylic acid ethylamide] | 8.7 |  |  | 11.9 |  | 7.7 |  | 28.8 nM | 28.7 ± 3.3 nM | 18.6 ± 4.4 nM | 2.4 ± 0.2 nM
CCNC(=O)[C@H]1O[C@@H](n2cnc3c(N)nc(C#CCC4CCN(C(=O)OC)CC4)nc32)C(O)C1O (stereo in doubt) [JR-4007, 4-{3-[6-Amino-9-(5-ethylcarbamoyl-3,4-dihydroxytetrahydrofuran-2-yl)-9H-purin-2-yl]-prop-2-ynyl}-piperidine-1-carboxylic acid methyl ester] |  |  |  | 35.7 |  | 67.2 |  | 1.7 nM | 34.6 ± 1.4 nM | 65.2 nM | 0.97 ± 0.33 nM
CCNC(=O)[C@H]1O[C@@H](n2cnc3c(N)nc(C#CCC4CCC(COC(C)=O)CC4)nc32)C(O)C1O (stereo in doubt) [ATL-193, Acetic acid 4-{3-[6-amino-9-(5-ethylcarbamoyl-3,4-dihydroxytetrahydrofuran-2-yl)-9H-purin-2-yl]-prop-2-ynyl}-cyclohexylmethyl ester] | 9.46 |  |  | 64.5 |  | 210.0 |  | 3.09 nM | 71 ± 14 nM | 231 ± 91 nM | 1.1 ± 0.2 nM
CCNC(=O)[C@H]1O[C@@H](n2cnc3c(N)nc(C#CCC4CCC(C)(C(=O)OC)CC4)nc32)C(O)C1O (single isomer, unassigned) [JR-3067A, 4-{3-[6-Amino-9-(5-ethylcarbamoyl-3,4-dihydroxytetrahydrofuran-2-yl)-9H-purin-2-yl]-prop-2-ynyl}-1-methyl-cyclohexanecarboxylic acid methyl ester] | 8.7 | 7.65 |  | 76.2 |  | 30.0 |  |  | 99 ± 27 nM | 39 ± 3 nM | 1.3 ± 0.8 nM
CCNC(=O)C1OC(n2cnc3c(N)nc(C#CC4(N)CCCCC4)nc32)C(O)C1O (centres unmarked) [JR-3205] | 8.08 | 7.22 | 14.2 ± 1.08 nM | 4.2 | 31.6 ± 26.5 nM | 9.3 | 3.4 ± 0.3 nM |  |  |  | 
CCNC(=O)[C@H]1O[C@@H](n2cnc3c(N)nc(C#CC4(O)CCC(C(C)(C)C)CC4)nc32)C(O)C1O (stereo in doubt) [JR-3203, 5-[6-Amino-2-(4-tert-butyl-1-hydroxycyclohexylethynyl)purin-9-yl]-3,4-dihydroxytetrahydrofuran-2-carboxylic acid ethylamide] | 9.11 |  |  | 9.5 |  | 28.1 |  | 14.1 nM | 14.7 ± 2.2 nM | 43.3 ± 18 nM | 1.5 ± 0.22 nM
